Test systems include RXF 393 renal; UO-31 renal; HL-60(TB) leukemia; UACC-62 melanoma; SN12C renal; A549 NSCLC; NCI/ADR-RES ovarian; MDA-MB-435; HS 578T breast; BT-549 breast.
What all share (assay): NCI-60 cell line screen, 48 h

Where “and” joins values, the source holds several entries; their conditions need not be identical. Identical values can stand only once.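 Following 48 hours of exposure in 96-well plates, responses at five concentrations were used to interpolate endpoints linearly. Abbreviation: GI50, concentration required for 50% inhibition of growth. TGI denotes the concentration required for complete inhibition of growth.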

Take `Cc1c(N(Cc2ccccc2)Cc2ccccc2)nc(S(C)(=O)=O)nc1S(C)(=O)=O`: the TGI was found to be 3.1 µM in the test with RXF 393 renal; 24.7 µM in the test on UO-31 renal; 4.28 µM in the test with HL-60(TB) leukemia; 3.16 µM in the test on UACC-62 melanoma; 4.28 µM in the test on SN12C renal; 29 µM in the test on A549 NSCLC.
In the case of `CC(=O)OC1C(C)OC(OC2C[C@](O)(C(C)=O)Cc3c(O)c4c(c(O)c32)C(=O)c2ccccc2C4=O)C(F)C1OC(C)=O` (stereo partly specified), the TGI in the test on RXF 393 renal was found to be 18.9 µM; in the test with NCI/ADR-RES ovarian, 9.46 µM; with MDA-MB-435 it was 23.5 µM; in the test on UO-31 renal, 0.567 µM; in the test on HS 578T breast, 9.89 µM; with UACC-62 melanoma, 2.81 µM. Further, the figures for the TGI in the test with SN12C renal, in the test on A549 NSCLC and in the test on BT-549 breast were 7.76 µM, 2.17 µM and 33.2 µM, respectively.
For the molecule `C[C@@H](c1ccccc1)N(CC#N)[C@H]1CCC[C@]1(O)/C=C/c1ccc2c(c1)OCO2`, the TGI in the test with RXF 393 renal, in the test on NCI/ADR-RES ovarian, in the test on MDA-MB-435, in the test on UO-31 renal, in the test with HS 578T breast and in the test with HL-60(TB) leukemia was over 25 µM throughout. Further, the TGI in the test with UACC-62 melanoma was 7.67 µM; with SN12C renal it was over 25 µM; in the test with A549 NSCLC, over 25 µM.
Regarding `O=C(Cn1c(-c2ccccc2)cc2ccccc21)N1CCOCC1`, the TGI with RXF 393 renal, with NCI/ADR-RES ovarian, in the test on MDA-MB-435, in the test on UO-31 renal, in the test with HS 578T breast and in the test on HL-60(TB) leukemia was over 100 µM throughout. In addition, the TGI with UACC-62 melanoma, in the test with SN12C renal and in the test on A549 NSCLC was over 100 µM throughout.
Regarding `O=C(c1ccccc1)n1c2ccc(Br)cc2c2nc3ccccc3nc21`, the TGI with RXF 393 renal, in the test with NCI/ADR-RES ovarian, in the test on MDA-MB-435, with UO-31 renal, in the test on HL-60(TB) leukemia and with UACC-62 melanoma was over 100 µM in each case. Besides, the TGI in the test with SN12C renal and with BT-549 breast was over 100 µM each time.
Turning to `CCCCC(C)(C/C=C/[C@@H]1[C@@H](C(O)CCCCCC(=O)OC)C(=O)C[C@H]1O[Si](C)(C)C(C)(C)C)O[Si](C)(C)C` (stereo partly specified), the TGI in the test with RXF 393 renal, in the test with NCI/ADR-RES ovarian, in the test with MDA-MB-435, in the test with UO-31 renal, in the test with UACC-62 melanoma and with SN12C renal was over 100 µM in each case. The TGI in the test on A549 NSCLC and with BT-549 breast was over 100 µM throughout.
On to `COC1=C(C)C(=O)C2=C(C1=O)C1C3CC4=C(C(=O)C(OC)=C(C)C4=O)C(CNC(=O)C(C)=O)N3C(C#N)C(C2)N1C` (stereo unspecified), for which the TGI is 0.0161 µM with RXF 393 renal; 4.05 µM and 2.76 µM in the test on NCI/ADR-RES ovarian; 0.00124 µM and 0.00553 µM with MDA-MB-435; 0.00238 µM in the test with HS 578T breast; 0.000825 µM and 0.0075 µM with UACC-62 melanoma; 0.348 µM and 0.144 µM in the test on SN12C renal. The molecule further came in with a TGI in the test with BT-549 breast of 0.0017 µM. For the same molecule, the GI50 is 1.16 µM with NCI/ADR-RES ovarian, 0.00034 µM in the test with MDA-MB-435 and 0.000111 µM in the test with UACC-62 melanoma.
For the molecule `CN(C)c1ccc(/C=C2\CCCCCC2=O)cc1`, the TGI with RXF 393 renal, in the test with NCI/ADR-RES ovarian, with MDA-MB-435, in the test with UO-31 renal, with HL-60(TB) leukemia and in the test on UACC-62 melanoma was over 100 µM throughout. Also, the TGI with SN12C renal, in the test with A549 NSCLC and with BT-549 breast was over 100 µM throughout.
On to `O=CC12CCCN1CCC2`, for which the TGI in the test on RXF 393 renal, in the test on NCI/ADR-RES ovarian, in the test with MDA-MB-435, in the test on UO-31 renal, in the test with UACC-62 melanoma and with SN12C renal was over 100 µM each time. Moreover, the TGI with A549 NSCLC and in the test on BT-549 breast was over 100 µM in each case.
As to `O=[N+]([O-])c1cccc2c1[nH]c1c(-c3ccccc3)nccc12`, the TGI in the test on RXF 393 renal was 12.4 µM; in the test on NCI/ADR-RES ovarian it was 4.44 µM; with UO-31 renal, 4.22 µM; in the test with HL-60(TB) leukemia it was 4.35 µM; in the test with UACC-62 melanoma, 9.04 µM; in the test on SN12C renal it was over 73.1 µM. In the test on A549 NSCLC, this molecule displayed a TGI of over 42.5 µM.
Take `Cc1ccc(C)c(C(=O)CC2OC(O)C(Cl)C2Cl)c1` (stereo unspecified): the TGI in the test on RXF 393 renal was 86 µM; with UO-31 renal, over 100 µM; with HL-60(TB) leukemia it was 95.7 µM; with UACC-62 melanoma, over 100 µM; in the test with SN12C renal, over 100 µM; with A549 NSCLC, over 100 µM.
With `Oc1[nH]c2ccccc2c1N=Nc1nc(-c2ccccc2)cs1`, the TGI is 83 µM in the test on NCI/ADR-RES ovarian; over 100 µM in the test with MDA-MB-435; over 100 µM in the test with UO-31 renal; over 100 µM in the test with SN12C renal; over 100 µM in the test with A549 NSCLC.
On to `C/C(=C\CNc1ncnc2c1ncn2CCC#N)CO`, for which the TGI in the test with RXF 393 renal, with NCI/ADR-RES ovarian, in the test with MDA-MB-435, in the test with UO-31 renal, with HS 578T breast and in the test on HL-60(TB) leukemia was over 100 µM each time. The TGI with UACC-62 melanoma, with SN12C renal and in the test on A549 NSCLC was over 100 µM in each case.
As to `CCN(CCCl)c1ccc(NC(=O)c2cc(C(=O)NCCN(C)C)cc(C(=O)Nc3ccc(N(CC)CCCl)cc3)c2)cc1`, the TGI with RXF 393 renal was 30.8 µM; in the test on NCI/ADR-RES ovarian, over 100 µM; in the test on MDA-MB-435 it was 33.9 µM; in the test with UO-31 renal it was over 100 µM; with HS 578T breast, 12.4 µM; in the test on HL-60(TB) leukemia, 3.19 µM. The TGI in the test on UACC-62 melanoma came out at 27.5 µM; with SN12C renal it was 21 µM; with A549 NSCLC it was 25.7 µM.
`Cc1cc(NS(=O)(=O)c2ccc(NC(NC(=O)OC(C)C)(C(F)(F)F)C(F)(F)F)cc2)nc(C)n1`: the TGI in the test on RXF 393 renal, in the test with NCI/ADR-RES ovarian, with MDA-MB-435, in the test on HS 578T breast, in the test on HL-60(TB) leukemia and with UACC-62 melanoma was over 100 µM throughout. Further, the TGI in the test on SN12C renal and in the test on A549 NSCLC was over 100 µM throughout.
For `COc1ccc(Sc2ccccc2[N+](=O)[O-])cc1`, the TGI in the test with RXF 393 renal was 78.7 µM; in the test with UO-31 renal, over 100 µM; in the test with HL-60(TB) leukemia, 20.8 µM; in the test on UACC-62 melanoma, over 100 µM; in the test on SN12C renal, over 100 µM; in the test on A549 NSCLC, over 100 µM.
